Biological target: CDK12/CycK (Homo sapiens, UniProt Q9NYV4)
Assay: CDK12/CycK high ATP kinase assay (TR-FRET, 2 mM ATP)
Format: biochemical
Conditions: 2 mM ATP (high ATP); median; read-out: CDK12/CyclinK, 2 mM ATP (high ATP), IC50-[mol/l] (median)
Summary of the method: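 His-tagged human CDK12/CycK (~0.75 nM) pre-incubated 15 min with compound, then 60 min at 22 °C with 2 mM ATP and 1 µM biotinylated peptide (HEPES pH 7.5, 20 mM MgCl2). EDTA stop; phospho-Ser62 antibody/Eu anti-rabbit and streptavidin-XL665 TR-FRET, 665/620 nm ratio normalised to give IC50.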

Sequence of CDK12/CycK (Q9NYV4 with tags, fused parts or gaps): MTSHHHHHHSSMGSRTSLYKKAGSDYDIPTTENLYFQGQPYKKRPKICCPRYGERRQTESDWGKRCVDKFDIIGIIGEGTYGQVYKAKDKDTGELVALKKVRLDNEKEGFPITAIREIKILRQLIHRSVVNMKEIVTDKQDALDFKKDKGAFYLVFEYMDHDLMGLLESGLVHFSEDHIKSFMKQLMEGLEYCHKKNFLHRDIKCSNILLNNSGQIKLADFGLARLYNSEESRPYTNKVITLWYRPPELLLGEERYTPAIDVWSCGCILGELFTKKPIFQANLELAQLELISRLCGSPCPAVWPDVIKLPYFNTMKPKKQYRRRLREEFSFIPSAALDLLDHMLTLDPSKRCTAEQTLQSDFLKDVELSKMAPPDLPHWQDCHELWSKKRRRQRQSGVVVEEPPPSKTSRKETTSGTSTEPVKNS
Sequence of CDK12/CycK (O75909 1-300 partner limits assumed): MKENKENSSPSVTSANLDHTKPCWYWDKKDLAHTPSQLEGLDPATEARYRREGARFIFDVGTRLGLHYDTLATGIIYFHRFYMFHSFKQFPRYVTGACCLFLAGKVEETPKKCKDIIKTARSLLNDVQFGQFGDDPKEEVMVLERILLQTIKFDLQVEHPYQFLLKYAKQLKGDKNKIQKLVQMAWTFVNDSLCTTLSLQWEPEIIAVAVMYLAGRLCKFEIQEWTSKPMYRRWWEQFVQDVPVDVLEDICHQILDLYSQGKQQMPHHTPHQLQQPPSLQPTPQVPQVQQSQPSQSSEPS

Structure (SMILES) | IC50 [µM]
FC(F)(F)Cc1cnn2c(NCc3nc4cc(Cl)ccc4[nH]3)nc(N3CCOCC3)nc12 [Example 299, N-[(5-chloro-1H-benzimidazol-2-yl)methyl]-2-(morpholin-4-yl)-8-(2,2,2-trifluoroethyl)pyrazolo[1,5-a][1,3,5]triazin-4-amine] | 6.39
FC(F)(F)c1cnn2c(NCc3nc4cc(Cl)ccc4[nH]3)nc(N3CCOCC3)nc12 [Example 275, N-[(5-chloro-1H-benzimidazol-2-yl)methyl]-2-(morpholin-4-yl)-8-(trifluoromethyl)pyrazolo[1,5-a][1,3,5]triazin-4-amine] | 0.0973
Fc1ccc2[nH]c(CNc3nc(N4CCOCC4)nc4c(C5CCC5)cnn34)nc2c1F [Example 264, 8-cyclobutyl-N-[(4,5-difluoro-1H-benzimidazol-2-yl)methyl]-2-(morpholin-4-yl)pyrazolo[1,5-a][1,3,5]triazin-4-amine] | 2.23
Fc1cc2nc(CNc3nc(N4CCOCC4)nc4c(C5CC5)cnn34)[nH]c2cc1Cl [Example 307, N-[(6-chloro-5-fluoro-1H-benzimidazol-2-yl)methyl]-8-cyclopropyl-2-(morpholin-4-yl)pyrazolo[1,5-a][1,3,5]triazin-4-amine] | 1.57
Fc1ccc2[nH]c(CNc3nc(N4CCOCC4)nc4c(C5CC5(F)F)cnn34)nc2c1 (racemic) [Example 286, 8-[(1RS)-2,2-difluorocyclopropyl]-N-[(5-fluoro-1H-benzimidazol-2-yl)methyl]-2-(morpholin-4-yl)pyrazolo[1,5-a][1,3,5]triazin-4-amine] | 11.3
Fc1ccc2[nH]c(CNc3nc(N4CCOCC4)nc4c(CC(F)(F)F)cnn34)nc2c1 [Example 308, N-[(5-fluoro-1H-benzimidazol-2-yl)methyl]-2-(morpholin-4-yl)-8-(2,2,2-trifluoroethyl)pyrazolo[1,5-a][1,3,5]triazin-4-amine] | 6.4
CN1CCN(c2nc(NCc3nc4c(F)cccc4[nH]3)n3ncc(C(F)(F)F)c3n2)CC1 [Example 293, N-[(4-fluoro-1H-benzimidazol-2-yl)methyl]-2-(4-methylpiperazin-1-yl)-8-(trifluoromethyl)pyrazolo[1,5-a][1,3,5]triazin-4-amine] | 5.91
N[C@H]1[C@@H]2C[C@H]1CN(c1nc(NCc3nc4ccccc4[nH]3)n3ncc(Br)c3n1)C2 [Example 288, 2-[(1R,5S,6r)-6-amino-3-azabicyclo[3.1.1]heptan-3-yl]-N-[(1H-benzimidazol-2-yl)methyl]-8-bromopyrazolo[1,5-a][1,3,5]triazin-4-amine] | 3.38

More lines, now with the values ahead:

IC50 [µM] | Structure (SMILES)
11.5 | Brc1cnn2c(NCc3nc4cccnc4[nH]3)nc(N3CCNCC3)nc12.O=CO [Example 19, 8-bromo-N-[(3H-imidazo[4,5-b]pyridin-2-yl)methyl]-2-(piperazin-1-yl)pyrazolo[1,5-a][1,3,5]triazin-4-amine formic acid salt]
8.61 | Brc1cnn2c(NCc3nc4ccccc4[nH]3)nc(N3C[C@H]4C[C@@H]3CN4)nc12 [Example 269, N-[(1H-benzimidazol-2-yl)methyl]-8-bromo-2-[(1R,4R)-2,5-diazabicyclo[2.2.1]heptan-2-yl]pyrazolo[1,5-a][1,3,5]triazin-4-amine]
> 15.8 | N[C@H]1CCN(c2nc(NCc3nc4ccccc4[nH]3)n3ncc(Br)c3n2)C1 [Example 245, 2-[(3S)-3-aminopyrrolidin-1-yl]-N-[(1H-benzimidazol-2-yl)methyl]-8-bromopyrazolo[1,5-a][1,3,5]triazin-4-amine]
18.3 | Brc1cnn2c(NCc3nc4ccccc4[nH]3)nc(N3C[C@H]4CNC[C@H]4C3)nc12 [Example 283, N-[(1H-benzimidazol-2-yl)methyl]-8-bromo-2-[(3aR,6aS)-hexahydropyrrolo[3,4-c]pyrrol-2(1H)-yl]pyrazolo[1,5-a][1,3,5]triazin-4-amine]
